Assay results taken from PubChem BioAssay (NCI).
“And” between values parts separate entries of the source, which are not always exact repeats. Equal entries are not always repeated.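 Method: 48-hour compound exposure of cells in 96-well plates, five concentrations, linear interpolation of endpoints. GI50 = concentration required for 50% inhibition of growth. TGI is the concentration that stops growth completely.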

Key:
Assay in all cases: growth of human tumour cells (NCI), 48 h
SN12C renal = test system: SN12C renal
RXF 393 renal = test system: RXF 393 renal
HOP-92 NSCLC = test system: HOP-92 NSCLC
NCI-H226 lung = test system: NCI-H226 lung
SF-539 CNS = test system: SF-539 CNS
COLO 205 colon = test system: COLO 205 colon
SNB-75 CNS = test system: SNB-75 CNS
HS 578T breast = test system: HS 578T breast
UO-31 renal = test system: UO-31 renal
786-0 renal = test system: 786-0 renal
MDA-N = test system: MDA-N

SMILES | GI50 (SN12C renal) [µM] | TGI (SN12C renal) | GI50 (RXF 393 renal) [µM] | TGI (RXF 393 renal) [µM] | GI50 (HOP-92 NSCLC) | TGI (HOP-92 NSCLC) | GI50 (NCI-H226 lung) [µM] | TGI (NCI-H226 lung) | GI50 (SF-539 CNS) [µM] | TGI (SF-539 CNS) | TGI (COLO 205 colon) | TGI (SNB-75 CNS) | TGI (HS 578T breast) [µM] | TGI (UO-31 renal) | TGI (786-0 renal) [µM] | TGI (MDA-N) [µM] | GI50 (SNB-75 CNS) [µM] | GI50 (UO-31 renal) [µM]
COc1cc2nc(-c3ccc(Cl)cc3)cc(OCCCN3CCOCC3)c2cc1OC | 1.3 | > 100 µM | 1.12 | 3.79 | 1.36 µM | 5.17 µM | 0.997 | 4.81 µM | 2.99 | > 100 µM | – | – | – | – | – | – | – | –
NCCN1CCCCCc2ccccc21 | – | > 10 µM | – | > 10 | – | – | – | > 10 µM | – | > 10 µM | > 10 µM | > 10 µM | > 10 | > 10 µM | > 10 | – | – | –
COc1ccc(CNc2cnc3ccc(N)cc3n2)cc1 | – | > 100 µM | – | – | – | – | – | > 100 µM | – | > 100 µM | 34.6 µM | > 100 µM | – | > 100 µM | > 100 | – | – | –
C[n+]1cc2cc(O)c(O)cc2c2ccc3cc(O)c(O)cc3c21 | – | 26 µM | – | 9.34 | – | 11.5 µM | – | > 48.2 µM | – | 7.77 µM | > 84.5 µM | 59.3 µM | – | 5.61 µM | 9.21 | > 100 | – | –
Cc1c(N2CCOCC2)nc2ccc(Cl)cc2c1-c1ccccc1 | – | > 100 µM | – | > 100 | – | > 100 µM | – | – | – | > 100 µM | > 100 µM | > 100 µM | – | > 100 µM | > 100 | – | – | –
c1ccc2c(c1)SCCCS2 | – | > 100 µM | – | – | – | > 100 µM | – | – | – | > 100 µM | > 100 µM | > 100 µM | – | > 100 µM | > 100 | > 100 | – | –
O=[N+]([O-])c1ccc(C[P+]2(c3ccccc3)CCCCC2)cc1 | – | > 100 µM | – | > 100 | – | – | – | > 100 µM | – | > 100 µM | > 100 µM | > 100 µM | – | > 100 µM | > 100 | – | – | –
Cc1nc2ccccc2nc1CC(=O)C(=O)Nc1ccc(Cl)cc1Cl | – | > 100 µM | – | > 100 | – | > 100 µM | – | – | – | > 100 µM | > 100 µM | > 100 µM | – | > 100 µM | > 100 | – | – | –
CN(C)CCn1c(=O)c2ccc(NCCCN(C)CCCNc3ccc4c(=O)n(CCN(C)C)c(=O)n5c6ccc(O)cc6c(=O)c3c45)c3c(=O)c4cc(O)ccc4n(c1=O)c23 | – | 0.553 µM | – | 0.215 | – | – | – | 0.0488 µM | – | 1.84 µM | 0.187 µM | 0.0627 µM | – | 0.452 µM | 1.05 | 0.251 | – | –
O=c1[nH]c(NCc2ccncc2)nc2nc[nH]c12 | – | > 100 µM | – | > 100 | – | > 100 µM | – | > 100 µM | – | – | > 100 µM | > 100 µM | > 100 | > 100 µM | > 100 | > 100 | – | –
Cc1cc([N+](=O)[O-])c(C)c2c1[nH]c1ccc(Cl)cc12 | – | > 100 µM | – | – | – | – | – | > 100 µM | – | > 100 µM | > 100 µM | > 100 µM | – | > 100 µM | > 100 | – | – | –
COC(=O)[C@]1(C)CCC[C@@]2(C)C1CC[C@]13C=C(C(C)C)[C@H](CC21)CC3(Cl)C#N (stereo partly specified) | – | > 100 µM | – | 97.5 | – | > 100 µM | – | 75.4 µM | – | > 100 µM | > 100 µM | > 100 µM | > 100 | > 100 µM | > 100 | – | – | –
Cc1c2ccnc(C(N)=O)c2c(C)c2c1[nH]c1ccccc12 | 5.44 | 27.9 µM and 31.6 µM | – | 16.6 | 2.96 µM and 11.5 µM | 12 µM and 53.2 µM | 3.28 | 19.8 µM and 15.7 µM | 3.75 | 23.9 µM and 13.9 µM | 50 µM and > 100 µM | 24.6 µM and 39.9 µM | – | 25.2 µM and 21.7 µM | 23.3 | – | 13.8 | 5.6
COC(=O)CNC(=O)C(CSC(=O)OCC1c2ccccc2-c2ccccc21)NC(=O)CCC(NC(=O)OCC1c2ccccc2-c2ccccc21)C(=O)OC (stereo unspecified) | – | > 100 µM | – | 32 | – | 30.8 µM | – | > 100 µM | – | 37.8 µM | 78.9 µM | – | > 100 | 35 µM | 26.6 | 38.5 | – | –
Cn1nc(-c2ccc(S(=O)(=O)/N=C(\NN)Nc3ccc(Cl)cc3)s2)cc1C(F)(F)F | – | 31.4 µM | – | 23.6 | – | 40.2 µM | – | 32.6 µM | – | 30 µM | 37.6 µM | 29.9 µM | – | 28 µM | 30.6 | 28 | – | –
O=c1c(F)cn2c(=O)n1CCCCCCCn1c(=O)c(F)cn(c1=O)CCCCCCC2 | – | > 100 µM | – | > 100 | – | > 100 µM | – | > 100 µM | – | > 100 µM | > 100 µM | 27 µM | – | > 100 µM | > 100 | > 100 | – | –
CCOC(=O)C1C(c2ccc(Cl)cc2Cl)NC(c2ccc(C)cc2)C(C(=O)OC)S1(=O)=O (stereo unspecified) | – | – | – | > 100 | – | > 100 µM | – | > 100 µM | – | > 100 µM | > 100 µM | > 100 µM | – | > 100 µM | > 100 | – | – | –
COc1ccc2ccc3oc(=O)c(C)cc3c2c1 | – | > 100 µM | – | > 100 | – | – | – | > 100 µM | – | > 100 µM | > 100 µM | > 100 µM | > 100 | > 100 µM | > 100 | > 100 | – | –
Cc1ccccc1-c1nc2c(N)nc(N)nc2nc1N | – | > 100 µM | – | – | – | – | – | – | – | > 100 µM | > 100 µM | > 100 µM | > 100 | > 100 µM | > 100 | > 100 | – | –
N#Cc1c(-c2ccc([N+](=O)[O-])cc2)cc(-c2ccc(Nc3ccnc4cc(Cl)ccc34)cc2)[nH]c1=O | – | – | – | > 100 | – | > 100 µM | – | > 100 µM | – | > 100 µM | > 100 µM | > 100 µM | – | > 100 µM | > 100 | – | – | –
CCc1c(O)cc(=O)oc1-c1ccc(OC)c(OC)c1 | – | > 100 µM | – | > 100 | – | > 100 µM | – | – | – | > 100 µM | > 100 µM | > 100 µM | > 100 | > 100 µM | > 100 | – | – | –
O=C(c1ccco1)N(C(=O)N1CCCCC1)c1ccccc1 | – | > 100 µM | – | > 100 | – | – | – | > 100 µM | – | > 100 µM | > 100 µM | – | > 100 | > 100 µM | > 100 | > 100 | – | –
